In PMC9282233 (Proceedings of the National Academy of Sciences of the …, 2022):

Target: Tsr (E. coli serine chemoreceptor) (Escherichia coli, UniProt P02942)
Assay: in vivo FRET kinase assay
Type: cell-based

Sequence of Tsr (E. coli serine chemoreceptor) (P02942 whole entry): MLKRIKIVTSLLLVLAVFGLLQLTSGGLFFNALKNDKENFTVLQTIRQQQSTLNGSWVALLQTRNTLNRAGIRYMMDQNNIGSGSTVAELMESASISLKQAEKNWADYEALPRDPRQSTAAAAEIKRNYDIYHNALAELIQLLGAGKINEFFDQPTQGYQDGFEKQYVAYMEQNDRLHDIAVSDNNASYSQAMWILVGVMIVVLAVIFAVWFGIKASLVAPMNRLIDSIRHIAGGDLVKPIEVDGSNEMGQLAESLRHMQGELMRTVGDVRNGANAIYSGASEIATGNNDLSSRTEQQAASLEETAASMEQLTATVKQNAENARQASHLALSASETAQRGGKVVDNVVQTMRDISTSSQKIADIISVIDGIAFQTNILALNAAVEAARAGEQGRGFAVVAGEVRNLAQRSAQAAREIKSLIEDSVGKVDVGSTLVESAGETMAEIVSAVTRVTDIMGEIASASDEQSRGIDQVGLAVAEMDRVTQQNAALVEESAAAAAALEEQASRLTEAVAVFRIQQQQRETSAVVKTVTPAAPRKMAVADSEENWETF

N[C@@H](CO)C(=O)O [serine]
IC50: 18 µM
